Reference: patent US3980646A, “3-Methylpyrazole-5-carboxylates and medicaments containing these compounds” (Wulfing; Johann A., priority 1974, dated 1976)
Values joined by “and” are separate entries in the source; they are usually repeats but may differ in a detail not shown here. Equal values may be shown once. “Also recorded” adds a separate entry of the source.

Tests used:
[1] = test system: serum triglycerides; experiment: influence on the serum triglycerides of repeated application; format: in vivo, rats male (Wistar); settings: for serum triglycerides: individual animals, starve for 5 hours, 100 mg/kg; for serum triglycerides / serum triglycerides, mean (x10): 100 mg/kg x/day p.o.; for serum triglycerides, mean (x10): control 133.6
Method: Influence on the serum triglycerides of repeated application of
100 mg/kg x/day p.o. rats male, starve for 5 hours, ether narcosis, heart
last application 1 hour before killing (cf. FIG. 3)

[2] = test system: free fatty acids (FFS); experiment: influence on the free fatty acids (FFS) after repeated application once daily for 4 days; format: in vivo, Rats male (Wistar); settings: for free fatty acids (FFS): individual animals; for free fatty acids (FFS) / free fatty acids (FFS), mean (x10): 4 × appl. 50 mg/kg p.o.; for free fatty acids (FFS), mean (x10): control 1.27, p<0.001
Method: Rats male, repeated application once daily for 4 days,
on the 4th day groups of 10 animals were killed at
intervals of 30 minutes, 1 hour and 2 hours after the
last application by ether narcosis and heart puncture.
10 controls were given esophagus probe, animals starved
for 17 hours before killing (cf. FIG. 4)
7-[3-(N-methyl-2-hydroxyethyl)-amino-2-
hydroxypropyl]-1,3-dimethylxanthine-3-
methylpyrazole-5-carboxylate 50 mg/kg peroral
3-methylpyrazole-5-carboxylic acid (3-MPC)
eq./kg 15 mg/kg peroral

[3] = test system: serum triglycerides (TG); experiment: influence on the serum triglycerides (TG) in normal animals; format: in vivo, Rats (Wistar); settings: for TG: starve for 5 hours; for TG, mean (x): 1 hour
Method: Rats, starve for 5 hours
40 mg/kg body weight of active principle according to
the invention, oral by esophagus probe 1 hour before
12 mg/kg body weight of 3-methylpyrazole-5-carboxylic
acid, equim. dosage, 1 hour before removal of blood
Dose: 10 mg/kg body weight of active principle according to the
invention, oral by esophagus probe 1 hour before blood removal
Dose: 3 mg/kg body weight of 3-methylpyrazole-5-carboxylic acid,
equim. dosage, oral by esophagus probe 1 hour before

[4] = general pharmacological effects (lipolysis inhibition, lipid lowering, tachyphylaxis, toxicity); format: in vivo
[5] = test system: serum fatty acids (FFS); experiment: influence on the serum fatty acids (FFS) of hyperlipacidaemic rats, alcohol lipolysis; format: in vivo, rats (Wistar); settings: alcohol 2 g/kg i.v., 100 mg/kg oral 3 hours before blood removal
Method: Investigations on a total of 260 Wistarrats were conducted with 7-[3-(N-methyl-N-2-hydroxyethyl)-amino-2-hydroxypropyl]-1,3-dimethylxanthine-3-methylpyrazole-5-carboxylate.
rats, starve for 5 hours,
Dose: alcohol 2g/kg body weight in 20% solution i.v.,
Dose: active principle according to the invention
100 mg/kg body weight, oral by esophagus probe
3 hours before blood removal

[6] = test system: Triglycerides; experiment: triglycerides in hyperlipacidaemic rats treated with octylphenol polyethylene glycolether; format: in vivo, Male rats (Wistar)
Method: Male rats, starve for 22 hours, ether narcosis, heart puncture
Dose: 1000 mg/kg of octylphenyl polyethylene glycolether i.v.
6 hours before blood removal
Dose: 100 mg/kg of 7-[3-(N-methyl-N-2-hydroxyethyl)-amino-2-
hydroxypropyl]-1,3-dimethylxanthine-3-methylpyrazole-5-
carboxylate by esophagus probe, 6 hours, 4 hours and
2 hours before blood removal

[7] = test system: mice; experiment: LD50 in mice; format: in vivo

**Q.** Which results are given for `CN(CCO)CC(O)Cn1cnc2c1c(=O)n(C)c(=O)n2C.Cc1cc(C(=O)O)[nH]n1` (stereo not drawn) [7-[3-(N-methyl-N-2-hydroxyethyl)-amino-2-hydroxypropyl]-1,3-dimethylxanthine-3-methylpyrazole-5-carboxylate]?
**A.** effect on the serum triglycerides on repeated application ([1]; 100 mg/kg over 4 days, result in words): uniform and, in some cases, even increased effect; also recorded: still significantly reduced; serum triglycerides ([1]; 1st day): 85.9 mg% and 57.3 mg% and 118.6 mg% and 104.5 mg% and 65.9 mg% and 88.8 mg%; serum triglycerides, mean (x10) ([1]; 1st day): 82.6 mg%; serum triglycerides ([1]; 2nd day): 38.7 mg% and 61.6 mg% and 54.4 mg% and 63.0 mg% and 95.9 mg% and 87.3 mg% and 127.4 mg% and 74.4 mg% and 57.2 mg% and 88.7 mg%; serum triglycerides, mean (x10) ([1]; 2nd day): 74.8 mg%; serum triglycerides ([1]; 3rd day): 60.1 mg% and 63.0 mg% and 90.2 mg% and 108.8 mg% and 50.1 mg% and 97.4 mg% and 80.2 mg% and 105.9 mg% and 58.7 mg%; serum triglycerides, mean (x10) ([1]; 3rd day): 77.4 mg%; serum triglycerides ([1]; 4th day): 30.1 mg% and 73.0 mg% and 67.0 mg% and 64.4 mg% and 60.1 mg% and 44.4 mg% and 58.7 mg% and 101.7 mg% and 67.3 mg%; serum triglycerides, mean (x10) ([1]; 4th day): 61.1 mg%; free fatty acids (FFS) ([2]; 30' after last application): 0.72 μval/ml plasma and 0.94 μval/ml plasma and 0.69 μval/ml plasma and 0.83 μval/ml plasma and 1.36 μval/ml plasma and 0.89 μval/ml plasma and 0.66 μval/ml plasma and 0.67 μval/ml plasma and 0.86 μval/ml plasma and 1.07 μval/ml plasma; free fatty acids (FFS) ([2]; 1 h after last appl.): 0.75 μval/ml plasma and 0.42 μval/ml plasma and 0.45 μval/ml plasma and 0.56 μval/ml plasma and 0.67 μval/ml plasma and 0.54 μval/ml plasma and 0.86 μval/ml plasma and 0.63 μval/ml plasma and 0.98 μval/ml plasma and 0.89 μval/ml plasma; free fatty acids (FFS) ([2]; 2 h after last appl.): 0.79 μval/ml plasma and 0.58 μval/ml plasma and 0.94 μval/ml plasma and 0.80 μval/ml plasma and 1.10 μval/ml plasma and 1.07 μval/ml plasma and 0.84 μval/ml plasma and 0.90 μval/ml plasma and 0.97 μval/ml plasma and 0.83 μval/ml plasma; free fatty acids (FFS), mean (x10) ([2]; 30' after last application): 0.87 μval/ml plasma; free fatty acids (FFS), mean (x10) ([2]; 1 h after last appl.): 0.68 μval/ml plasma; free fatty acids (FFS), mean (x10) ([2]; 2 h after last appl.): 0.88 μval/ml plasma; weakening of effect on free fatty acid content by pretreatment ([2]; repeated application, result in words): does not have this effect; TG ([3]; Table 7, individual animals, 40 mg/kg oral 1 hour before removal of blood, 40 mg/kg): 71.6 mg % and 22.9 mg % and 15.8 mg % and 18.6 mg % and 41.5 mg % and 40.1 mg % and 58.7 mg % and 32.9 mg % and 45.8 mg %; TG, mean (x) ([3]; Table 7, mean, 40 mg/kg oral, control x = 66.4, p<0.0027>Ko): 36.3 mg %; TG ([3]; Table 8, individual animals, 10 mg/kg oral 1 hour before blood removal, 10 mg/kg): 48.7 mg % and 54.4 mg % and 83.1 mg % and 55.8 mg % and 74.4 mg % and 81.6 mg % and 51.5 mg % and 40.1 mg %; TG, mean (x) ([3]; Table 8, mean, 10 mg/kg oral, control x = 86.3, p<0.05>Ko): 59.8 mg %; serum triglyceride level of normal animals ([3]; doses down to 10 mg/kg, result in words): significantly reduces the serum triglyceride level; influence on free fatty acids (FFS) ([4]; doses down to 2 mg/kg, normal and hyperlipacidaemic rats (starved animals, alcohol animals)): significantly influences the free fatty acids (FFS); effect (lipolysis inhibition, reducing triglyceride and cholesterol level, low toxicity) ([4]; result in words): particularly marked effect; FFS ([5]; individual animals, 100 mg/kg): 0.45 μval/ml and 0.58 μval/ml and 0.59 μval/ml and 0.60 μval/ml and 0.52 μval/ml and 0.56 μval/ml and 0.43 μval/ml and 0.66 μval/ml and 0.67 μval/ml and 0.53 μval/ml; FFS, mean (φ) ([5]; mean, control φ 0.64, alcohol series φ 0.79, p<0.001): 0.56 μval/ml; triglyceride level ([6]; hyperlipacidaemic rats, result in words): significant reduction in the triglyceride level; TG ([6]; individual animals, octylphenol polyethylene glycolether 1000 mg/kg i.v. 6 hours before, 100 mg/kg per os 6, 4 and 2 hours before killing): 644.4 mg % and 687.4 mg % and 701.6 mg % and 707.4 mg % and 610.0 mg % and 703.1 mg % and 695.9 mg % and 711.7 mg %; TG, mean (x) ([6]; mean, octylphenol polyethylene glycolether 1000 mg/kg i.v., 100 mg/kg per os 6, 4 and 2 hours before killing, control x = 777.2, p<0.001): 687.0 mg %; LD50 ([7]; i.v.): 540 mg/kg; LD50 ([7]; per oral): more than 1000 mg/kg
